Test: Human HepG2 cell viability assay in 384 well format
Format: toxicity, cell-based
Design: dose 125 nL, time 70.5 hour; cytotoxicity at 70.5 h: concentration not given beside the values
Settings: HepG2 cells, read-out: Inhibition

| Compound | cytotoxicity at 70.5 h [%] |
| --- | --- |
| CCc1cnc(N2CC3(CCN(C(=O)c4ccoc4)C3)C2)nc1 | -1.44 |
| O=C1OCCN1c1cccc(CNS(=O)(=O)Cc2ccc(F)cc2)c1 | -6.39 |
| CC(C)CN1C(=O)C2(CCCC2)NC1c1cccnc1 (stereo unspecified) | 17.9 |
| CN(Cc1ncc[nH]1)S(=O)(=O)c1cccc(C(=O)N2CCOCC2)c1 | -2.7 |
| CCOc1cc(C)nc(N2CCN(C(C)c3nc(C)no3)CC2)n1 (stereo unspecified) | -1.64 |
| CC(=O)N1CC(=O)N(c2cnn(C)c2)CC12CCN(Cc1nccs1)C2 (stereo unspecified) | -7.04 |
| Cc1nc(CN2CCCC(NCCCOc3ccc(F)cc3)C2)no1 (stereo unspecified) | -8.43 |
| CCc1ncc2c(n1)CN(c1cc(NCCO)nc(N)n1)C2 | -3.48 |
| c1cncc(O[C@H]2COCCN(C3CCC3)C2)c1 | 1.49 |
| COCCN1C[C@@H](C(=O)O)[C@H](c2ccccc2C)C1 | 31.8 |
| Cn1cc(C2CCCN2C(=O)c2cnc(-c3ccco3)s2)cn1 (stereo unspecified) | -4.49 |
| CC(C)C(NC(=O)Nc1cnn(CC(N)=O)c1)c1ccc(Cl)cc1 (stereo unspecified) | -1.5 |
| Cc1cc(NC(=O)CN2CCc3c(nc(C(C)C)n3C)C2)n(C)n1 | -16.7 |
| CN(Cc1ncc[nH]1)C(=O)C(C)(C)NC(=O)c1cccs1 | -3.2 |
| Cc1ccc(-c2nc(CN(Cc3ccco3)C3CCS(=O)(=O)C3)cs2)o1 (stereo unspecified) | 15.2 |
| Cc1nc(CN(C)C(=O)NC(C)c2ccc3c(c2)OCCO3)cs1 (stereo unspecified) | 36.4 |
| c1coc(CN2CCC3(CCOCC3COCC3CC3)CC2)c1 (stereo unspecified) | 2.33 |
| c1cc(CCn2ccc(NC3CCSCC3)n2)ccn1 | -3.19 |
| Cc1cc(NC(=O)c2ccc(N3CCOCC3)c(F)c2)[nH]n1 | -1.35 |
| CCS(=O)(=O)N(C)C1CCN(c2cccc(F)c2C(C)=O)CC1 | -4.38 |
| CO[C@H]1CCN(Cc2cnn(C)c2)[C@@H]2CN(Cc3ccncc3)C[C@H]12 | -6.62 |
| CC(Cn1cccn1)NCc1csc(COc2ccccc2)n1 (stereo unspecified) | -2.25 |
| O=C(c1cncc(N2CCC3(CCNCC3)CC2)n1)N1CCCC1 | 12.4 |

| Compound | cytotoxicity at 70.5 h [%] |
| --- | --- |
| CC(C)(C)C(=O)NC(c1nccs1)C1CCN(CC2CCCCC2)CC1 (stereo unspecified) | 33.7 |
| CC(C)N1CCCn2nc(C(=O)NCCc3c[nH]cn3)cc2C1 | 19.8 |
| CC(C)N(CCS(C)(=O)=O)Cc1csc(Cc2ccc(Cl)cc2)n1 | 3.51 |
| Cc1ccc(C(=O)N2CCC3(CCCCC3)C2)c(=O)[nH]1 | -105 |
| COc1nn(C)c2c1CCCN(C(=O)c1cccs1)C2 | -23.5 |
| CN1CCN(C2CCN(CCOc3ccc(C#N)cc3)CC2)C1=O | -5.65 |
| O=S(=O)(NC1CCC12CCN(CC1CC1)CC2)c1ccccc1 (stereo unspecified) | 11.7 |
| CCc1nc(CN2CCCN(C(=O)CC(C)OC)CC2)cs1 (stereo unspecified) | 51.7 |
| COCCCS(=O)(=O)N1CCN(Cc2cccn2C)CC1 | 43.4 |
| Cc1nn(C)c2nc(N(CCN(C)C)CC3CCCO3)sc12 (stereo unspecified) | -7.79 |
| Cn1ncc2c(N3CC[C@H](O)C3)nc(-c3ccncc3)nc21 | -15.7 |
| CNC(=O)C1CN(C(=O)c2cccnc2)CCN(S(C)(=O)=O)C1 (stereo unspecified) | -4.31 |
| CCN1CCn2c(C)cnc2C12CCN(C(=O)c1ccc(Cl)cc1)CC2 | -11.3 |
| Cc1cccnc1CN1CCN(CC(=O)N(C)C)[C@@H]2CS(=O)(=O)C[C@@H]21 | -5.23 |
| CS(=O)(=O)N1C[C@H]2CCCN(Cc3ccsc3)[C@H]2C1 | 13.4 |
| CC(CN1CCCC1=O)NC(=O)c1ccc(C(F)(F)F)[nH]c1=O (stereo unspecified) | -74.6 |
| COc1cc(N2C[C@H]3OCC[C@H]3[C@H](C(=O)NC3CC3)C2)ncn1 | -4.39 |
| COC[C@]1(O)CCN(C2CCN(c3ccc(OC)cc3)CC2)CC1(C)C | 23.9 |
| O=C(NCCC1=CCCCC1)Nc1cc(C(F)(F)F)c[nH]c1=O | 0.799 |
| c1c(CN2CCCC2)nc2n1CCN(CC1CC1)C2 | -4.19 |
| OC1(CN2CCC(Oc3cccc(C(F)(F)F)c3)CC2)CCNC1 (stereo unspecified) | -7.31 |
| CCc1nnc(CNCC2CCCN2c2cccnn2)o1 (stereo unspecified) | -3.72 |
| CN(C)CCN1CCC2(CCCN(C(=O)C3CCC3)C2)CC1 | -1.03 |

| Compound | cytotoxicity at 70.5 h [%] |
| --- | --- |
| Cc1csc2c(N3CCC(NCCCc4ccncc4)CC3)ncnc12 | -7.45 |
| Cc1noc(C(C)Nc2ccc3c(c2)CCC3)n1 (stereo unspecified) | 8.72 |
| Cc1nc(C)n(C2CCCN(C(=O)c3ccc(OC(C)C)nc3)C2)n1 (stereo unspecified) | -0.207 |
| CC(=O)N1CCC(c2cncc(N3CCCCCC3)n2)CC1 | -17.2 |
| O=C(NCC(O)c1ccccc1Cl)c1cccc(-n2cnnn2)c1 (stereo unspecified) | -0.179 |
| COCCNC(=O)CCC1CCN(Cc2cccc(SC)c2)CC1 | 5.26 |
| Cc1ccc(N2CCC3(CCN(C(=O)c4ccccn4)CC3)CC2)nn1 | -5.97 |
| CC(C)C(NC(=O)c1ccccc1)C(=O)N1CCC2(CC1)OCCO2 (stereo unspecified) | 17.2 |
| CCN(C(=O)CCc1ccccc1)C1CC(=O)NC1=O (stereo unspecified) | 0.716 |
| COc1ccc(NC(=O)CNc2ccc(Br)cc2F)cc1 | -1.21 |
| Cc1cc(C(=O)N(C)Cc2cnn(C)c2C)n(C)n1 | 14 |
| CC1CCCCN1C(=O)c1coc(COc2cccc3cnccc23)n1 (stereo unspecified) | -6.78 |
| COc1ccccc1CN1C(=O)O[C@@H]2CN(c3ccccn3)C[C@@H]21 | 22.7 |
| CNS(=O)(=O)Cc1cccc(CNc2ccc(Cl)cn2)c1 | 4.33 |
| CCOCC1CCN(C(=O)C(c2ccc(F)cc2)N(C)C)CC1 (stereo unspecified) | -8 |
| O=C(Nc1ccccc1)[C@H]1C[C@@H]2CN(C(=O)Nc3ccccc3)C[C@H]1O2 | -27.2 |
| O=C(NCC(Cc1cccc(F)c1)N1CCCC1=O)C1CCCC1 (stereo unspecified) | -13.2 |
| Cc1cc(C)c2nc(C)c(C(=O)N3CCC(N4CCCC4)CC3)cc2c1 | -0.523 |
| Cc1nc2cc(O)nn2c(C)c1CCC(=O)N(C)Cc1cscn1 | 30.1 |
| O=C(c1cc(=O)c(OCc2ccccc2F)co1)N1CCSCC1 | -3.38 |
| Cc1nsc(NC(=O)NC2CCN(C)CC2)n1 | -11.7 |
| Nc1ncc(-c2ccc(Cl)cc2)c(C2CCCNC2)n1 (stereo unspecified) | 37.3 |
| COC(=O)COc1nc(C(C)C)no1 | -10.1 |

| Compound | cytotoxicity at 70.5 h [%] |
| --- | --- |
| CN(C)C(=O)CN1CCOCC2(CCN(CC3CCOCC3)CC2)C1 | -7.63 |
| COCCN1CCN(C(=O)c2ccccc2C(C)=O)[C@H]2CS(=O)(=O)C[C@H]21 | -5.79 |
| CCCc1nnc(N2CC[C@](C)(O)[C@H](C)C2)s1 | 8.74 |
| CC(=O)N1CCC(N2CCN3C(=O)N(Cc4ccccn4)C[C@H]3C2)CC1 | -1.05 |
| COc1ccc(C)cc1S(=O)(=O)N[C@H]1CN(C(C)=O)C[C@@H]1C1CC1 | -7.75 |
| Cn1cc(C(=O)NCCc2csc(-c3ccccc3)n2)ccc1=O | -2.1 |
| CNS(=O)(=O)c1ccccc1N1CCN(C(C)C(N)=O)CC1 (stereo unspecified) | -3.93 |
| COc1ccc(CN2CCC3(CCN(c4cccnc4)C3=O)C2)cc1 (stereo unspecified) | 1.92 |
| CN(C(=O)Cn1nc(-c2ccc(Cl)cc2)ccc1=O)C1CCS(=O)(=O)C1 (stereo unspecified) | -21.1 |
| c1cncc(COCC2CN(Cc3ccco3)Cc3ccnn3C2)c1 (stereo unspecified) | 0.213 |
| CCS(=O)(=O)N(C)C1CCN(C(=O)c2ccc(Cl)cc2)CC1 | -15.5 |
| O[C@@H]1Cc2ccccc2[C@@H]1Nc1ncccc1F | -9.59 |
| CC(=O)Nc1ccc(CN2CCCC(c3cc4ncccc4[nH]3)C2)cc1 (stereo unspecified) | -5.47 |
| COC[C@@]12CC[C@@H](N3CCOCC3)C[C@H]1CCN(c1cnccn1)C2 | 13.9 |
| CCc1cc(O)n2nc(C3CCN(C(=O)c4ccncc4)CC3)cc2n1 | 20.6 |
| CC(=O)N1CCC2(CC1)CN(C(C)C)c1ccc(F)cc12 | -1.77 |
| CN(Cc1cccc(CCN)c1)Cc1cccc2ncccc12 | -16.2 |
| Cc1nccc(-c2cccc(NCC(=O)N3CCOC(C)C3)c2)n1 (stereo unspecified) | -3.45 |
| O=C(NCC1CC1)[C@H]1C[C@@H]2CN(C(=O)NCc3ccccc3)C[C@H]1O2 | 11.4 |
| O=C(CC1CCCO1)NS(=O)(=O)Cc1cc(-c2ccccc2)no1 (stereo unspecified) | 20.6 |
| OCc1csc(N2CCCC(COc3cccc(F)c3)C2)n1 (stereo unspecified) | -9.22 |
| COc1ccc(F)cc1S(=O)(=O)NCC(O)c1sccc1C (stereo unspecified) | -2.63 |
| Cc1cc(-c2nn3c(C)nnc3s2)n[nH]1 | 20 |

| Compound | cytotoxicity at 70.5 h [%] |
| --- | --- |
| OC(COCc1ccc(Cl)cc1)CN1CC(n2cccn2)C1 (stereo unspecified) | -2.28 |
| c1cnc(N2C[C@H](OCC3CCOCC3)[C@H]3COC[C@H]32)nc1 | -1.34 |
| O=C(c1ccco1)N1CCC2(CC1)C(=O)NCCN2CC1CC1 | -26.8 |
| O=C(NC1CC1)C(c1ccccc1)N1CCN(Cc2ccc(Cl)s2)CC1 (stereo unspecified) | -3.83 |
| CCCc1nc(CN(CC)C(=O)c2onc3ccccc23)no1 | 17 |
| O=C(NCc1ccc(Cl)cc1)C1=NOC2(CCNC2)C1 (stereo unspecified) | -9.72 |
| CCn1c(CN(C)C)nnc1C1CCN(Cc2ccc(C)s2)CC1 | -2.28 |
| COc1ncccc1C(=O)N1CCc2c(ncnc2N2CCOCC2)C1 | -3.85 |
| CCOc1ccc2[nH]c(=O)c(CN3CCCC3c3ccccn3)cc2c1 (stereo unspecified) | -11.8 |
| CN1C(=O)CCCC12CCCN(C(=O)c1cccc(C(F)(F)F)c1)C2 (stereo unspecified) | -6.35 |
| CN(C)c1cc2c(nn1)CCN(C(=O)c1ccc(-n3cccn3)nc1)C2 | -25.2 |
| COCc1ccc(CNC(=O)C2=NN(c3ccccc3)C(=O)CN2)cc1 | -12.2 |
| CCc1cccc(N2CCC(NC(=O)c3ccoc3C)CC2)c1 | 19.4 |
| CCOc1ccc(NS(=O)(=O)c2cc(C)c(C(=O)O)s2)c(C)c1 | -3.91 |
| CCOc1ccc(C(=O)N(CCOC)Cc2c(C)nn(CC)c2C)o1 | -6.36 |
| CCCN1CCCn2nc(CNC(=O)CCc3scnc3C)cc2C1 | -1.73 |
| O=C(Cc1cccs1)NC1(C(=O)NCC2CC2)CCCC1 | -7.33 |
| CN(C)C(=O)c1ccc(CNc2c(Cl)cccc2C#N)cc1 | 3.41 |
| COCCN(CCOC)S(=O)(=O)N(C)Cc1ccncc1 | 19.1 |

Reference: ChEMBL document CHEMBL3507680, “University of Dundee, Gates Library screen for HepG2 cell viability”
